Experimental data from patent publication US20090118331A1, “Use of Lobeline Epimers in the Treatment of Central Nervous System Diseases, Pathologies, and Drug Abuse” (priority 2007, published 2009).
Values joined by “and” are separate entries in the source; they are usually repeats but may differ in a detail not shown here. Identical values can stand only once.

Assays:
[1] = Lobeline conversion to epimer in the buffer system used at 37° C. in the VMAT2 uptake study (HPLC); format: physicochemical; conditions: for Epimer %: VMAT2 uptake buffer, 37° C.
[2] = Pharmacokinetics of lobeline and epimer in human subjects after sublingual lobeline administration (7.5, 15, 30 mg); conditions: for CL/F (extravascular clearance): epimer
Text: The pharmacokinetics of lobeline and lobeline epimer were examined in eight human subjects (Sub) after sublingual lobeline administration.

[3] = in vivo; conditions: female, rat, in vivo
Procedure: Here, serial doses of lobeline were administered to male and female rats intravenously, subcutaneously or orally, and the pharmacokinetic profiles of the parent lobeline and its epimer were monitored in plasma.

[4] = epimer in plasma, individual human subjects, sublingual lobeline 7.50 mg
[5] = epimer in plasma, individual human subjects, sublingual lobeline 15.0 mg
[6] = epimer in plasma, individual human subjects, sublingual lobeline 30.0 mg
[7] = individual human subjects, sublingual lobeline 7.50 mg
[8] = individual human subjects, sublingual lobeline 15.0 mg
[9] = individual human subjects, sublingual lobeline 30.0 mg

SMILES: CN1[C@H](CC(=O)c2ccccc2)CCC[C@H]1C[C@H](O)c1ccccc1 (single isomer, unassigned; epimer 2) [Epimer, 2-[6S-(2S-hydroxy-2-phenyl-ethyl)-1-methyl-piperidin-2S-yl]-1-phenyl-ethanone]
- component content of solution ([1]; 37° C. uptake buffer with ATP-Mg2+ cofactor reduced from 2 mM to 0.4 mM, after 2 hours, with impurity): 33%
- final component concentration (as a function of the area under the curve) ([1]; VMAT2 uptake buffer (HEPES), 2 hour incubation at 37° C.): 30%
- Epimer % ([1]; T0, sample age 0:01): 1.76%
- Epimer % ([1]; T5, sample age 0:05): 3.34%
- Epimer % ([1]; T10, sample age 0:10): 5.47%
- Epimer % ([1]; T15, sample age 0:15): 8.62%
- Epimer % ([1]; T25, sample age 0:25): 13.2%
- Epimer % ([1]; T30, sample age 0:30): 14.9%
- Epimer % ([1]; T35, sample age 0:35): 16.2%
- Epimer % ([1]; T40, sample age 0:40): 17.7%
- Epimer % ([1]; T45, sample age 0:45): 18.9%
- Epimer % ([1]; T50, sample age 0:50): 20.1%
- Epimer % ([1]; T55, sample age 0:55): 21.0%
- Epimer % ([1]; T60, sample age 1:00): 22.1%
- Epimer % ([1]; T70, sample age 1:10): 24.3%
- Epimer % ([1]; T80, sample age 1:20): 26.1%
- Epimer % ([1]; T90, sample age 1:31): 26.9%
- Epimer % ([1]; T100, sample age 1:40): 28.0%
- Epimer % ([1]; T110, sample age 1:50): 29.2%
- Epimer % ([1]; T120, sample age 2:00): 30.3%
- dose linearity of Cmax and CL/F ([2]; dose range from 7.5 to 30 mg, sublingual, human): Linear kinetics
- AUC(0-∞) [2, 4]: 11.92 ng·h/mL
- AUCext (percent of AUC(0-∞) determined by extrapolation) [2, 4]: 40.22% and 37.47% and 21.02% and 13.37% and 29.10% and 11.02% and 21.05% and 22.14%
- Tlast (time of last measurable plasma concentration) [2, 4]: 2.00 hr and 3.00 hr (4×) and 6.00 hr and 12.00 hr and 4.00 hr
- λz (terminal exponential rate constant) [2, 4]: 0.6868 h⁻¹ and 0.3858 h⁻¹ and 0.6119 h⁻¹ and 0.3882 h⁻¹ and 0.531 h⁻¹ and 0.2004 h⁻¹ and 0.6101 h⁻¹ and 0.489 h⁻¹
- AUC(0-∞) [2, 5]: 24.30 ng·h/mL
- AUCext (percent of AUC(0-∞) determined by extrapolation) [2, 5]: 10.70% and 12.80% and 22.39% and 5.75% and 10.95% and 14.68% and 8.64% and 8.10%
- Tlast (time of last measurable plasma concentration) [2, 5]: 4.17 hr and 4.00 hr (3×) and 8.00 hr and 11.00 hr and 4.03 hr and 6.00 hr
- λz (terminal exponential rate constant) [2, 5]: 0.6055 h⁻¹ and 0.6196 h⁻¹ and 0.4338 h⁻¹ and 0.3591 h⁻¹ and 0.684 h⁻¹ and 0.1908 h⁻¹ and 0.7266 h⁻¹ and 0.5175 h⁻¹
- AUC(0-t) [2, 6]: 83.89 ng·h/mL and 20.12 ng·h/mL and 87.17 ng·h/mL
- AUCext (percent of AUC(0-∞) determined by extrapolation) [2, 6]: 3.89% and 10.44% and 5.56% and 15.37% and 11.12% and 3.26% and 7.85% and 5.01%
- Tlast (time of last measurable plasma concentration) [2, 6]: 6.00 hr (2×) and 4.00 hr (3×) and 8.00 hr (2×) and 22.75 hr
- λz (terminal exponential rate constant) [2, 6]: 0.6184 h⁻¹ and 0.6931 h⁻¹ and 0.5281 h⁻¹ and 0.25 h⁻¹ and 0.7194 h⁻¹ and 0.1513 h⁻¹ and 0.8194 h⁻¹ and 0.3741 h⁻¹
- CL/F (extravascular clearance) [2, 7]: 282.7 mL/min/kg and 110.1 mL/min/kg and 240.7 mL/min/kg and 70.7 mL/min/kg and 159.2 mL/min/kg and 17.4 mL/min/kg and 225.5 mL/min/kg and 144.2 mL/min/kg
- CL/F (extravascular clearance) [2, 8]: 188.2 mL/min/kg and 120.8 mL/min/kg and 161.7 mL/min/kg and 56.2 mL/min/kg and 175.6 mL/min/kg and 14.5 mL/min/kg and 180.2 mL/min/kg and 97.3 mL/min/kg
- CL/F (extravascular clearance) [2, 9]: 153.7 mL/min/kg and 184.5 mL/min/kg and 146.9 mL/min/kg and 55.5 mL/min/kg and 285.9 mL/min/kg and 13.7 mL/min/kg and 259.4 mL/min/kg and 74.9 mL/min/kg
- ratio of the cumulative amount of urinary epimer to lobeline ([2]; human subjects, sublingual lobeline): approximately 0.5
- Combined urinary excretion of lobeline and epimer ([2]; human, in vivo): ≤ 0.5%
- AUC(0-inf) ([2]; human, in vivo, 7.5 mg, epimer in plasma, individual human subjects, sublingual lobeline 7.50 mg): 13.2 ng·h/mL
- AUC(0-inf) ([2]; human, in vivo, 15 mg, epimer in plasma, individual human subjects, sublingual lobeline 15.0 mg): 17.3 ng·h/mL
- AUC(0-inf) ([2]; human, in vivo, 30 mg, epimer in plasma, individual human subjects, sublingual lobeline 30.0 mg): 91.8 ng·h/mL
- half-life ([2]; human, in vivo, 30 mg, Terminal exponential phase half-life (T1/2), average): ~1.7 h
- half-life ([2]; human, in vivo, 30 mg, Terminal exponential phase half-lives (T1/2 values), range): 1 to 5 h
- Tmax ([2]; human, in vivo, 30 mg, Tmax values, range): 0.25 to 3 h
- Tmax ([2]; human, in vivo, 30 mg, Tmax, average): 1.3 h
- half-life ([2]; human, in vivo, mean T1/2 values, human subjects, sublingual lobeline): ~2 h
- ratio of epimer to lobeline in plasma (Cmax and area under the curve; x to 1) ([2]; humans receiving sublingual lobeline 7.5, 15 and 30 mg): 8-10 and 8 to 10
- AUC(0-∞) Ratio (Epi/Lob) [2, 7]: 8.23 and 7.66 and 4.64 and 8.82 and 4.97 and 10.29 and 6.66 and 7.29
- AUC(0-∞) Ratio (Epi/Lob) [2, 8]: 10.60 and 7.17 and 8.44 and 9.79 and 6.74 and 12.94 and 6.63 and 10.97
- AUC(0-∞) Ratio (Epi/Lob) [2, 9]: 11.77 and 6.33 and 8.63 and 10.30 and 6.07 and 11.84 and 9.02 and 11.44
- AUC(0-inf) ([3]; iv, 2 mg/kg): 76.9 ng·h/mL
- AUC(0-t) ([3]; iv, 2 mg/kg): 75.4 ng·h/mL
- Cmax ([3]; iv, 2 mg/kg): 53.9 ng/mL
- MRT last ([3]; iv, 2 mg/kg): 1.6 h
- Tmax ([3]; iv, 2 mg/kg): 0.25 h
- Vd ([3]; iv, 2 mg/kg): 45.9 L/kg
- clearance ([3]; iv, 2 mg/kg): 0.433 mL/min/kg
- half-life ([3]; iv, 2 mg/kg): 1.47 h
- AUC(0-inf) ([3]; po, 20 mg/kg): 40.9 ng·h/mL
- AUC(0-t) ([3]; po, 20 mg/kg): 39.3 ng·h/mL
- Cmax ([3]; po, 20 mg/kg): 23.8 ng/mL
- MRT last ([3]; po, 20 mg/kg): 2.16 h
- Tmax ([3]; po, 20 mg/kg): 0.5 h
- half-life ([3]; po, 20 mg/kg): 1.71 h
- AUC(0-inf) ([3]; sc, 3 mg/kg): 128 ng·h/mL
- AUC(0-t) ([3]; sc, 3 mg/kg): 127 ng·h/mL
